{
  "source": "patent US7250410B2",
  "about": "“Cyclic nucleotide phosphodiesterase inhibitors, preparation and uses thereof” (Via Pharmaceuticals, Inc., priority 2001, dated 2007)",
  "data": [
    {"target": "PDE4", "test": "Inhibition of PDE4, radioenzymatic phosphodiesterase assay", "assay_type": "biochemical, bovine", "conditions": "Table 1, formula (III); 1 μM cyclic AMP", "procedure": "(§1) A 3 g segment of bovine aortic media cut into pieces with scissors was homogenized with an ultra-turrax then a potter glass/glass homogenizer in 7 volumes by weight of buffer A containing a protease inhibitor cocktail (20 mM Tris-HCl, 0.25 M saccharose, 2 mM magnesium acetate, 1 mM dithiothreitol, 5 mM EGTA, 2000 U/ml aprotinin, 10 mg/l leupeptin and 10 mg/l soya trypsic inhibitor). The homogenizate was centrifuged at 105,000 g for 1 hour. […] The column was washed until there was no detectable absorption at 280 nm, then eluted with a linear gradient of NaCl (0–0.5 M) in buffer B. 3-ml fractions were collected and enzyme activity was determined under the conditions described hereinafter to localize the different enzymes PDE1, PDE3, PDE4 and PDE5, which were aliquoted and frozen at −80° C.\n(§2) The nucleoside formed was separated from the nucleotides by anion exchange chromatography. Nucleoside radioactivity was determined by liquid scintillation counting.", "units": {"IC50": "nM"}, "values": [
      {"compound": "COc1cc2c(cc1OC)C(c1cccc3ccccc13)=NN(C)C(=O)C2", "note": "[IIIaa, 7,8-dimethoxy-3-methyl-1-(1-naphthyl)-3,5-dihydro-4H-2,3-benzodiazepin-4-one]", "IC50": 9300},
      {"compound": "COc1cc2c(cc1OC)C(c1ccc(I)cc1)=NN(C)C(=O)C2", "note": "[IIIah, 1-(4-iodophenyl)-7,8-dimethoxy-3-methyl-3,5-dihydro-4H-2,3-benzodiazepin-4-one]", "IC50": 3100},
      {"compound": "COc1cc2c(cc1OC)C(c1ccc(-c3ccccc3OC)cc1)=NN(C)C(=O)C2", "note": "[IIIai, 7,8-dimethoxy-1-[4-(2-methoxyphenyl)phenyl]-3-methyl-3,5-dihydro-4H-2,3-benzodiazepin-4-one]", "IC50": 1800},
      {"compound": "COc1cccc(-c2ccc(C3=NN(C)C(=O)Cc4cc(OC)c(OC)cc43)cc2)c1", "note": "[IIIaj, 7,8-dimethoxy-1-[4-(3-methoxyphenyl)phenyl]-3-methyl-3,5-dihydro-4H-2,3-benzodiazepin-4-one]", "IC50": 2700},
      {"compound": "COc1cc2c(cc1OC)C(c1ccc(-c3cccc(C(C)=O)c3)cc1)=NN(C)C(=O)C2", "note": "[IIIak, 1-[4-(3-acetylphenyl)phenyl]-7,8-dimethoxy-3-methyl-3,5-dihydro-4H-2,3-benzodiazepin-4-one]", "IC50": 1800},
      {"compound": "COc1cc2c(cc1OC)C(c1ccc(-c3ccc(C(C)=O)cc3)cc1)=NN(C)C(=O)C2", "note": "[IIIal, 1-[4-(4-acetylphenyl)phenyl]-7,8-dimethoxy-3-methyl-3,5-dihydro-4H-2,3-benzodiazepin-4-one]", "IC50": 2400},
      {"compound": "COc1cc2c(cc1OC)C(c1ccc(-c3cccc(NC(C)=O)c3)cc1)=NN(C)C(=O)C2", "note": "[IIIam, 1-[4-(3-acetamidophenyl)phenyl]-7,8-dimethoxy-3-methyl-3,5-dihydro-4H-2,3-benzodiazepin-4-one]", "IC50": 1700},
      {"compound": "COc1cc2c(cc1OC)C(c1ccc(Br)cc1)=NN(C)C(=O)C2", "note": "[IIIan, 1-(4-bromophenyl)-7,8-dimethoxy-3-methyl-3,5-dihydro-4H-2,3-benzodiazepin-4-one]", "IC50": 1800},
      {"compound": "COc1ccc(-c2ccc(C3=NN(C)C(=O)Cc4cc(OC)c(OC)cc43)cc2)cc1", "note": "[IIIao, 7,8-dimethoxy-1-[4-(4-methoxyphenyl)phenyl]-3-methyl-3,5-dihydro-4H-2,3-benzodiazepin-4-one]", "IC50": 1700},
      {"compound": "COc1cc2c(cc1OC)C(c1ccc(-c3cccc(C(F)(F)F)c3)cc1)=NN(C)C(=O)C2", "note": "[IIIap, 1-[4-[3-(trifluoromethyl)phenyl]phenyl]-7,8-dimethoxy-3-methyl-3,5-dihydro-4H-2,3-benzodiazepin-4-one]", "IC50": 1900},
      {"compound": "COc1cc2c(cc1OC)C(c1ccc(-c3ccccc3C)cc1)=NN(C)C(=O)C2", "note": "[IIIaq, 7,8-dimethoxy-3-methyl-1-[4-(2-methylphenyl)phenyl]-3,5-dihydro-4H-2,3-benzodiazepin-4-one]", "IC50": 1900},
      {"compound": "COc1cc2c(cc1OC)C(c1ccc(-c3cccc(C)c3)cc1)=NN(C)C(=O)C2", "note": "[IIIar, 7,8-dimethoxy-3-methyl-1-[4-(3-methylphenyl)phenyl]-3,5-dihydro-4H-2,3-benzodiazepin-4-one]", "IC50": 2900},
      {"compound": "COc1cc2c(cc1OC)C(c1ccc(-c3ccc(C)cc3)cc1)=NN(C)C(=O)C2", "note": "[IIIas, 7,8-dimethoxy-3-methyl-1-[4-(4-methylphenyl)phenyl]-3,5-dihydro-4H-2,3-benzodiazepin-4-one]", "IC50": 2900},
      {"compound": "COc1cc2c(cc1OC)C(c1ccc(-c3ccc(Cl)cc3)cc1)=NN(C)C(=O)C2", "note": "[IIIat, 1-[4-(4-chlorophenyl)phenyl]-7,8-dimethoxy-3-methyl-3,5-dihydro-4H-2,3-benzodiazepin-4-one]", "IC50": 2300},
      {"compound": "COc1cc2c(cc1OC)C(c1ccc(-c3cccs3)cc1)=NN(C)C(=O)C2", "note": "[IIIau, 7,8-dimethoxy-3-methyl-1-[4-(2-thienyl)phenyl]-3,5-dihydro-4H-2,3-benzodiazepin-4-one]", "IC50": 3800},
      {"compound": "COc1cc2c(cc1OC)C(c1ccc(-c3cc(C(F)(F)F)cc(C(F)(F)F)c3)cc1)=NN(C)C(=O)C2", "note": "[IIIaw, 1-{4-[3,5-bis-(trifluoromethyl)phenyl]phenyl}-7,8-dimethoxy-3-methyl-3,5-dihydro-4H-2,3-benzodiazepin-4-one]", "IC50": 16000},
      {"compound": "CCCCCC#Cc1ccc(C2=NN(C)C(=O)Cc3cc(OC)c(OC)cc32)cc1", "note": "[IIIax, 1-[4-(heptyn-1-yl)phenyl]-7,8-dimethoxy-3-methyl-3,5-dihydro-4H-2,3-benzodiazepin-4-one]", "IC50": 7800},
      {"compound": "CCOc1cc2c(cc1OCC)C(c1cc3ccccc3s1)=NN(C)C(=O)C2", "note": "[IIIba, 1-(2-benzo[b]thienyl)-7,8-diethoxy-3-methyl-3,5-dihydro-4H-2,3-benzodiazepin-4-one]", "IC50": 6900}
    ]},
    {"system": "PDE4", "test": "Inhibition of PDE4, radioenzymatic phosphodiesterase assay", "assay_type": "biochemical, bovine", "conditions": "Table 1, formula (III); compound at 10 μM", "procedure": "as §1, §2", "units": {"PDE4 percentage inhibition at 10 μM": "%"}, "values": [
      {"compound": "COc1cc2c(cc1OC)C(c1ccccc1)=NN(Cc1ccccc1)C(=O)C2", "note": "[IIIac, 3-benzyl-7,8-dimethoxy-1-phenyl-3,5-dihydro-4H-2,3-benzodiazepin-4-one]", "PDE4 percentage inhibition at 10 μM": 33},
      {"compound": "CCCCCCCCCCCCN1N=C(c2ccccc2)c2cc(OC)c(OC)cc2CC1=O", "note": "[IIIad, 3-n-dodecyl-7,8-dimethoxy-1-phenyl-3,5-dihydro-4H-2,3-benzodiazepin-4-one]", "PDE4 percentage inhibition at 10 μM": 3.9},
      {"compound": "COC(=O)CCCCCCCCCCCN1N=C(c2ccccc2)c2cc(OC)c(OC)cc2CC1=O", "note": "[IIIae, 7,8-dimethoxy-3-(12-methoxy-12-oxododecyl)-1-phenyl-3,5-dihydro-4H-2,3-benzodiazepin-4-one]", "PDE4 percentage inhibition at 10 μM": 19},
      {"compound": "CCCN1N=C(c2ccccc2)c2cc(OC)c(OC)cc2CC1=O", "note": "[IIIaf, 7,8-dimethoxy-1-phenyl-3-n-propyl-3,5-dihydro-4H-2,3-benzodiazepin-4-one]", "PDE4 percentage inhibition at 10 μM": 30},
      {"compound": "CCN1N=C(c2ccccc2)c2cc(OC)c(OC)cc2CC1=O", "note": "[IIIag, 3-ethyl-7,8-dimethoxy-1-phenyl-3,5-dihydro-4H-2,3-benzodiazepin-4-one]", "PDE4 percentage inhibition at 10 μM": 36}
    ]},
    {"target": "PDE4", "test": "Inhibition of PDE4, radioenzymatic phosphodiesterase assay", "assay_type": "biochemical, bovine", "conditions": "Table 3, formula (II); 1 μM cyclic AMP", "procedure": "as §1, §2", "units": {"IC50": "nM"}, "values": [
      {"compound": "COc1cc2c(cc1OC)N(C)C(=O)CN=C2c1cc2ccccc2s1", "note": "[IIac, 5-(2-benzo[b]thienyl)-7,8-dimethoxy-1-methyl-1,3-dihydro-1,4-benzodiazepin-2-one]", "IC50": 2300},
      {"compound": "COc1cc2c(cc1OC)N(C)C(=O)CN=C2c1cc2ccccc2o1", "note": "[IIag, 5-(2-benzo[b]furyl)-7,8-dimethoxy-1-methyl-1,3-dihydro-1,4-benzodiazepin-2-one]", "IC50": 4800},
      {"compound": "COc1cc2c(cc1OC)N(C)C(=O)CN=C2c1cccs1", "note": "[IIak, 7,8-dimethoxy-1-methyl-5-(2-thienyl)-1,3-dihydro-1,4-benzodiazepin-2-one]", "IC50": 16000},
      {"compound": "COc1cccc(C2=NCC(=O)N(C)c3cc(OC)c(OC)cc32)c1", "note": "[IIal, 7,8-dimethoxy-5-(3-methoxyphenyl)-1-methyl-1,3-dihydro-1,4-benzodiazepin-2-one]", "IC50": 10000},
      {"compound": "COc1cc2c(cc1OC)N(C)C(=O)CN=C2c1ccc2[nH]ccc2c1", "note": "[IIan, 5-(5-indolyl)-7,8-dimethoxy-1-methyl-1,3-dihydro-1,4-benzodiazepin-2-one]", "IC50": 3600},
      {"compound": "COc1cc2c(cc1OC)N(C)C(=O)CN=C2c1ccc2cc(OCc3ccccc3)ccc2c1", "note": "[IIao, 5-(6-benzyloxy-2-naphthyl)-7,8-dimethoxy-1-methyl-1,3-dihydro-1,4-benzodiazepin-2-one]", "IC50": 1600},
      {"compound": "COc1cc2c(cc1OC)N(C)C(=O)CN=C2c1cc2ccccc2[nH]1", "note": "[IIaq, 5-(2-indolyl)-7,8-dimethoxy-1-methyl-1,3-dihydro-1,4-benzodiazepin-2-one]", "IC50": 7900}
    ]},
    {"system": "PDE4", "test": "Inhibition of PDE4, radioenzymatic phosphodiesterase assay", "assay_type": "biochemical, bovine", "conditions": "Table 3, formula (II); compound at 10 μM", "procedure": "as §1, §2", "units": {"PDE4 percentage inhibition at 10 μM": "%"}, "values": [
      {"compound": "COc1ccc(C2=NCC(=O)N(C)c3cc(OC)c(OC)cc32)cc1OC", "note": "[IIab, 7,8-dimethoxy-5-(3,4-dimethoxyphenyl)-1-methyl-1,3-dihydro-1,4-benzodiazepin-2-one]", "PDE4 percentage inhibition at 10 μM": 38},
      {"compound": "COc1cc2c(cc1OC)N(C)C(=O)CN=C2c1ccc(F)cc1", "note": "[IIad, 7,8-dimethoxy-5-(4-fluorophenyl)-1-methyl-1,3-dihydro-2H-1,4-benzodiazepin-2-one]", "PDE4 percentage inhibition at 10 μM": 23},
      {"compound": "COc1cc2c(cc1OC)N(C)C(=O)CN=C2c1ccncc1", "note": "[IIae, 7,8-dimethoxy-1-methyl-5-(4-pyridyl)-1,3-dihydro-2H-1,4-benzodiazepin-2-one]", "PDE4 percentage inhibition at 10 μM": 3.4},
      {"compound": "COc1cc2c(cc1OC)N(C)C(=O)CN=C2c1cc(C(F)(F)F)cc(C(F)(F)F)c1", "note": "[IIaf, 7,8-dimethoxy-1-methyl-5-(3, 5 bistrifluoromethylphenyl)-1,3-dihydro-2H-1,4-benzodiazepin-2-one]", "PDE4 percentage inhibition at 10 μM": 11.7},
      {"compound": "COc1cc2c(cc1OC)N(C)C(=O)CN=C2c1ccco1", "note": "[IIah, 5-(2-furyl)-7,8-dimethoxy-1-methyl-1,3-dihydro-1,4-benzodiazepin-2-one]", "PDE4 percentage inhibition at 10 μM": 36},
      {"compound": "COc1cc2c(cc1OC)N(C)C(=O)CN=C2c1ccc(C(C)=O)cc1", "note": "[IIai, 5-(4-acetylphenyl)-7,8-dimethoxy-1-methyl-1,3-dihydro-1,4-benzodiazepin-2-one]", "PDE4 percentage inhibition at 10 μM": 39},
      {"compound": "COc1cc2c(cc1OC)N(C)C(=O)CN=C2c1ccc(N(C)C)cc1", "note": "[IIaj, 7,8-dimethoxy-5-(4-N,N-dimethylaminophenyl)-1-methyl-1,3-dihydro-2H-1,4-benzodiazepin-2-one]", "PDE4 percentage inhibition at 10 μM": 7.9},
      {"compound": "COc1cc2c(cc1OC)N(C)C(=O)CN=C2c1ccccc1OC", "note": "[IIam, 7,8-dimethoxy-5-(2-methoxyphenyl)-1-methyl-1,3-dihydro-1,4-benzodiazepin-2-one]", "PDE4 percentage inhibition at 10 μM": 20},
      {"compound": "COc1ccc2cc(C3=NCC(=O)N(C)c4cc(OC)c(OC)cc43)ccc2c1", "note": "[IIap, 7,8-dimethoxy-5-(6-methoxy-2-naphthyl)-1-methyl-1,3-dihydro-1,4-benzodiazepin-2-one]", "PDE4 percentage inhibition at 10 μM": 18}
    ]}
  ]
}
